{
  "source": "paper PMC8502973",
  "about": "(Frontiers in Physiology, 2021)",
  "key": {"[1]": {"assay": "Long-term: gross motor activity and body temperature (Mini-Mitter transponders)", "assay_type": "in vivo, male DIO Sprague Dawley rats", "conditions": "28-day study, n = 5 per group; first 12 days analysed", "description": "(§1) Male DIO Sprague Dawley rats (n = 24) were generated as outlined above and were 644.5 g (50 g) at the start of drug treatment. The animals were divided into three treatment groups (n = 8 each) balanced for body weight, body weight gain during baseline, food intake, and Lee Index [body weight^(1/3)/snout to anus length (mm)] ([Lee, 1929]; [Simson and Gold, 1982]) as an indicator of adiposity (Figure 2). In a subset of the animals (n = 5 per group, balanced for prior mentioned criteria), Mini-Mitter transponders (PDT-4000 E-Mitter, Respironics Inc.) were implanted posterior to the left scapula at least 9 days prior to start of baseline measures to ensure sufficient recovery time. Body temperature and gross motor activity were continuously recorded via these transponders. […] High fat diet and water were provided ad libitum and intake was recorded with daily hopper and water bottle weighs at time of body weight assessment just prior to drug administration. Blood samples were taken at start of intervention by tail vein bleeding and via cardiac puncture under an isoflurane induced surgical plane of anesthesia at euthanasia. Animals were euthanized on treatment day 29, 4 h after receiving a dose of their assigned treatment, via decapitation under isoflurane anesthesia immediately following blood draw. Body composition was assessed on carcasses.\nFor comparisons of mean longitudinal changes in body temperature and activity, only the first 12 days of treatment, divided into three 4-day phases, were included in the analysis. These 4-day phases allowed for analyses to consider the ASK1476 dose titration."}, "[2]": {"conditions": "sc and iv, rodents; ref Modi et al., 2016; cited from earlier work"}, "[3]": {"assay": "Dose escalation: kaolin intake (pica, nausea/visceral malaise)", "assay_type": "in vivo, male DIO Sprague Dawley rats", "description": "(§2) Sprague Dawley rats (male, ∼4 weeks of age, 51–75 g body weight) were switched from standard chow to a high fat diet (Research Diets, Diet # D12492, 60, 20, 20%kcal from fat, protein, and carbohydrate, respectively, 5.21 kcal/g; stored at −20°C). The rats were maintained on this diet for approximately 15 weeks prior to the start of experiments to develop a diet-induced overweight (DIO) model. Animals were individually housed on a 12 h/12 h light/dark cycle (lights on at 04:00 h) in a temperature (23°C) and humidity (mean 50%, SD 10%) controlled room. All body weight measurements were made just prior to the start of the dark cycle.\nSequential rounds of a 3-day baseline phase (vehicle treated), a 3-day treatment phase, and a washout phase (2–5 days as necessary) were tested. […] High fat diet was accessible to the rats from all but the last 6 h of the light cycle and water was provided ad libitum. This daily period of food restriction was used to prevent incidental feeding in the event animals were disturbed from their sleep by noise from surrounding rooms. To assess a potential pica response (nausea/visceral malaise) in animals, powdered kaolin (Sigma-Aldrich, K1512) was made available on drug treatment days with a restriction period similar to the high fat diet. Prior to the first experiment, rats were provided access to kaolin for 2 days so that they could familiarize themselves with it prior to start of testing. Food and kaolin intake were continuously recorded using AccuScan DietMax (currently OmniTech Electronics, Inc., Diet System) cages. The high fat diet was compressed in the food tray to form a solid block of food. This allows for more accurate meal size measurements by preventing the animals from removing entire pellets at time. All food and kaolin intake data were binned into 15-min intervals for analysis and the start of the 24-h food intake period aligned to the lights turning off in the animal room. Body weight was recorded, and treatment injections were administered just prior to the start of the dark cycle."}, "[4]": {"assay": "Long-term (28-day) drug intervention: body weight", "assay_type": "in vivo, male DIO Sprague Dawley rats", "conditions": "treatment days 9-28", "description": "as §2, §1\nFrom treatment day 8 on the doses were maintained to assess long-term efficacy at a therapeutically meaningful dose."}, "human V2 receptor": {"biological_target": "T1, human V2 receptor (Homo sapiens, UniProt P30518)", "T1 construct": "expressed in transfected cells; host or cells: CHO cells", "T1 sequence (P30518 whole entry)": "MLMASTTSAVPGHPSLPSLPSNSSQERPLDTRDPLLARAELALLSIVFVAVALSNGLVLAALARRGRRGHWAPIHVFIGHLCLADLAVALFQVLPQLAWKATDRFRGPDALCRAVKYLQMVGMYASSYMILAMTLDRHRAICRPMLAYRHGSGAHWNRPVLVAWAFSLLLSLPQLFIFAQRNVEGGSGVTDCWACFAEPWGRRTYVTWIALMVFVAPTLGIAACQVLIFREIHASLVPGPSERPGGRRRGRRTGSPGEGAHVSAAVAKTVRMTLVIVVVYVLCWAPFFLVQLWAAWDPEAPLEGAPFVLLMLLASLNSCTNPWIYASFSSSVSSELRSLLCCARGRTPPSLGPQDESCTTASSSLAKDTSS", "assay": "V2R agonist activity, cAMP production by HTRF, stably transfected CHO cells", "assay_type": "cell-based", "conditions": "HTRF detection, read-out: hV2R, EC50", "description": "V2R: Evaluation of the agonist activity of compounds at the human V2 receptor expressed in stably transfected CHO cells was conducted by measuring their effects on cAMP production using the HTRF detection method ([Cotte et al., 1998])."}, "Toxicity / mortality": {"assay": "Toxicity / mortality", "assay_type": "in vivo"}, "[5]": {"assay": "Long-term: hormone and metabolic blood parameters", "assay_type": "in vivo, male DIO Sprague Dawley rats", "description": "as §1, with “Animals were euthanized on treatment day 29, 4 h after receiving a dose of their assigned treatment, via decapitation under isoflurane anesthesia immediately following blood draw.” left out\nCommercially available enzyme-linked immunosorbent assays (ELISA) were used for quantitative assessment of leptin (MilliporeSigma, Burlington, MA) and insulin (MilliporeSigma, Burlington, MA); all with intra-assay CV < 4%. […]"}, "[6]": {"conditions": "ref Modi et al., 2016, cited from earlier work", "description": "This property allows for reduction of the free fraction of ASK1476 available for enzymatic degradation. The pharmacokinetics study protocol for ASK1476 in mice and rats was described before ([Modi et al., 2016])."}},
  "note": "“Also recorded” adds a separate entry of the source. Where two headings read alike, the source gives them in different places. Positions of bridges follow the written chain, without caps; N, C: chain ends. Residues, ends and D or L forms follow the SMILES beside them. Groups on a side chain read outwards from the residue. *: point of attachment. PEG8 = NCCOCCOCCOCCOCCOCCOCCOCCOCCC(=O)O; Palmitoyl = CCCCCCCCCCCCCCCC(=O)*",
  "data": [
    {"smiles": "CCCCCCCCCCCCCCCC(=O)NCCOCCOCCOCCOCCOCCOCCOCCOCCC(=O)NCCCC[C@H](NC(=O)CNC(=O)[C@@H]1CSSC[C@H](N)C(=O)N[C@@H](Cc2ccc(O)cc2)C(=O)N[C@@H]([C@@H](C)CC)C(=O)N[C@@H](CCC(N)=O)C(=O)N[C@@H](CC(N)=O)C(=O)N1)C(=O)NCC(N)=O", "note": "[ASK1476] (H-CYIQNCGK([PEG8-Palmitoyl])G-NH2; disulfide 1-6)", "values": [
      {"measurement": "locomotor activity or body temperature", "setting": "[1]", "result": "no effects were detected on locomotor activity or body temperature; also recorded: did not find any evidence"},
      {"measurement": "half-life vs OXT", "setting": "[2]", "result": "increased half-life"},
      {"measurement": "plasma protein binding vs OXT", "setting": "[2]", "result": "increased plasma protein binding"},
      {"measurement": "relationship between kaolin consumption and baseline normalized food intake", "setting": "[3]; ASK1476 6, 15, 30, 60, 120 and 300 nmol/kg", "result": "no significant association"},
      {"measurement": "visceral malaise signal (notably high kaolin intake in a few animals)", "setting": "[3]; ASK1476 dosing spectrum", "result": "may result in visceral malaise in a subset of animals"},
      {"measurement": "kaolin intake of several animals at higher doses", "setting": "[3]; ASK1476 ≥ 30 nmol/kg/d, several animals, not seen with OXT", "result": "> 4", "unit": "g/day"},
      {"measurement": "kaolin intake, trend with dose", "setting": "[3]; increasing ASK1476 doses, not significant", "result": "increasing trend"},
      {"measurement": "kaolin intake at low doses", "setting": "[3]; low doses, sc once daily", "result": "below 4 g/d"},
      {"measurement": "kaolin intake, effect of treatment", "setting": "[3]; sc once daily, ASK1476 6-300 nmol/kg F(1.80, 12.59) = 2.26, p = 0.148, OXT 20-1200 nmol/kg F(1.51, 10.52) = 1.73, p = 0.223", "result": "no significant effect of treatment"},
      {"measurement": "weight stability during final 20 days", "setting": "[4]", "result": "remained weight stable"},
      {"measurement": "EC50", "setting": "human V2 receptor", "result": 0.36, "unit": "nM"},
      {"measurement": "death", "setting": "Toxicity / mortality; 150 nmol/kg intraperitoneal, unpublished dosing experiment", "result": "death of a rat"},
      {"measurement": "death", "setting": "Toxicity / mortality; 300 nmol/kg daily sc, after third dose, cause of death not established", "result": "one rat was found dead"},
      {"measurement": "serum ALT, difference vs vehicle", "setting": "[5]; ASK1476, 95% CI −2.1 to −13.2, p = 0.006", "result": "−7.6", "unit": "U/L"},
      {"measurement": "ALT, post-treatment", "setting": "[5]; after 28-day Tx, serum, n = 8, Mean ± SD, ASK1476 ** p < 0.01 vs vehicle, ANOVA p 0.009", "result": "0.440.06** μmol/(sL)"},
      {"measurement": "half-life vs OXT", "setting": "[6]; iv, rats, compared to OXT", "result": "extended half-life"},
      {"measurement": "plasma clearance vs OXT", "setting": "[6]; iv, rats, compared to OXT", "result": "reduced plasma clearance"},
      {"measurement": "steady-state volume of distribution vs OXT", "setting": "[6]; iv, rats, compared to OXT", "result": "increased steady-state volume of distribution"},
      {"measurement": "brain to plasma concentration ratio (distribution)", "setting": "[6]; sc, depot formulation", "result": "almost exclusive compartmentalization of the molecule to plasma"},
      {"measurement": "concentrations in the central compartments", "setting": "[6]; sc, depot formulation", "result": "only minimal concentrations detectable"},
      {"measurement": "plasma exposure", "setting": "[6]; sc, depot formulation", "result": "prolonged exposure in the plasma"},
      {"measurement": "total maximal plasma concentration (Cmax)", "setting": "[6]; sc, mice, at 2 h post-dose", "result": "improved total maximal plasma concentration (Cmax)"},
      {"measurement": "half-life", "setting": "[6]; sc, mice", "result": "extended half-life"}
    ]}
  ]
}
